Format in all cases: cell-based, human
Test [1] has as its system hypermethylated neuroblastoma cell lines. In words: Telomerase inhibitor treatment of hypermethylated neuroblastoma cell lines. The conditions noted are these: two neuroblastoma cell lines hypermethylated in region 2 of the TERT promoter, 5 μM for 5 weeks.
In test [2] the test system is neuroblastoma cell line (CHLA90). In words: Telomerase inhibitor treatment of unmethylated neuroblastoma cell line CHLA90. The conditions noted are these: CHLA90, unmethylated within region 2 of the TERT promoter, evidence of ALT; 5 μM for 5 weeks.
Test [3] relates to glioma G179 tumour-initiating cells. Description: Telomerase inhibition, cell population doubling analysis, G179 TIC line. The conditions noted are these: Imetelstat 5 μM twice a week. From the text: Samples were obtained with patients' consent according to the Research Ethics Boards at The Hospital for Sick Children and Toronto Western Hospital. Fetal Neural Stem (NS) HF240 cells, human Mesenchymal Progenitor cells, human umbilical cord perivascular cells, and human skin-derived precursors hSKPs were previously described (Castelo-Branco et al. Clin Cancer Res. 2011 Jan. 1; 17(1):111-21). Glioma tumour-initiating cell (TIC) lines G179 and GLINS1 were derived from patients diagnosed with classic glioblastoma multiforme and maintained as previously described (Castelo-Branco et al., 2011). All cell lines and patient samples are described in Table 1.
HF240 normal neural stem cell line and the G179 TIC line were treated twice a week with 5 μM Imetelstat telomerase inhibitor. Cell population doubling analysis after treatment was then determined.

From US10597730B2, “Method of diagnosing cancer” (The Hospital for Sick Children, priority 2012, dated 2020) come the findings set out here.

“Also recorded” adds a separate entry of the source.

Take Imetelstat: the “response to treatment (growth and viability)” value was “responded” in test [1]; “inhibitory effect on growth and viability” in test [1] (listed as imetelstat); “did not” in test [2]. Moreover, the “growth / replicative potential (cell population doubling)” value in test [3] is given as “inhibit growth; also recorded: loss of replicative potential”.
